These are literature values, as cited in US20220154183A1, “CHMP2A as a Regulator of Natural Killer Cell-Mediated Activity” (The Regents of the University of California, priority 2019, published 2022).

For the data set, the system named is HNSCC. Conditions: cetuximab as monotherapy.

Consider pembrolizumab, for which the patients responding is reported as 20%.

Consider Nivolumab, for which the patients responding is 20%.
